In data set [1] the test system is ears of hairless outbred mice inflamed with A-23187. The experiment in a line: Reduction in edema of A-23187 inflamed mouse ears by ear weight (Examples 8-14, Studies A and B). In kind it is in vivo, young, male, adult hairless outbred mice (Skh:hr-1 strain). To be noted: for Reduction in Edema (%): sacrificed at four hours; for anti-inflammatory activity (in words): under the test conditions, data of Table 2. The source says: (§1) Acute inflammation is induced by the application of 4 nano mole of the antibiotic A-23187 to the ears of young, male, adult hairless outbred mice (Skh:hr-1 strain). Thereafter, one of the compounds AN-10, AMCF3-8, ACBXE-9, acryloyl AN-10, S-4-F and SAN-6 is applied to the affected ears and the degree of reduction in edema (inflammation) noted.
The method used in the subject Examples differs from the method used in the preceding Examples (4 through 7) in two respects.
(§2) Secondly, in the expression of the data, the objective parameter of ear weights is used as the sole data source (for the reduction of edema) as erythematous responses are not recorded. Ear weights are determined by sacrificing the animals four hours after initial application of the antibiotic A-23187 or other control material by the use of CO2 gas. Thereafter, the ears are excised by cutting along the characteristic ridge readily discernible along the inner aspect of the ears. Wet and dry ear weights are used to determine the extent of the edema or inflammation present.
In Study A, 28 test animals are randomized into four treatment groups of seven each and subjected to the following ear treatment regimen:
Each animal is dosed with a treatment consisting of a 10 microliter quantity of the assigned test material solution (or pure acetone in the case of the animals of Group D) applied to the outer aspect of both ears, i.e., 10 microliter of test material per ear. The concentrations of the respective materials in acetone solution are such that a 10 microliter dose of a solution of the antibiotic A-23187 contains 4 nano mole of such antibiotic. The corresponding quantity in the case of the AN-10 in acetone solution is 1.5 micromole. The animals of Groups A and B are initially treated with the acetone solution of A-23187. In the case of the animals of Group B alone, 10 microliter of the acetone solution of AN-10 is applied to the affected ears 1/2 hour after the application of the above-mentioned quantity of a solution in acetone of the antibiotic A-23187. The animals of Group C receive a 10 microliter dose per ear of the AN-10 in acetone solution alone. The animals of Group D receive a dose of 10 microliter per ear of pure acetone. All the test subjects are sacrificed four hours after the application of A-23187 to the animals of Groups A and B or the other test materials in the case of the animals of Groups C and D. The results are summarized in Table 2 noted below.
(§3) A second group of studies (Study B) is conducted on two consecutive days with two sets of mice (totalling […]) received from the same shipment.
On Day 2, using the second set of 40 mice, sub-divided into 8 groups of 5 each, the six compounds in question are applied as acetone solutions in the manner described under Study A to mice ears inflamed with A-23187 again, as described in Study A above. As with the studies conducted on Day 1, the remaining two groups of 5 animals each serve as controls and their ears are dosed with A-23187 and acetone respectively.
(§4) The amount of each salicylamide compound applied is kept constant, for Days 1 and 2, at 1.5 micromole per 10 microliter of test solution. Sacrifice begins four hours after application A-23187, on both days, and the results are recorded. Table 2 summarizes the results of the regimen of testing involved with each one of the 30 animals in question on Day 2 with the remaining 10 animals serving as controls as already noted.

For another data set, the system named is untreated ears of mice. Put plainly: Inflammatory potential of the compounds on untreated mouse ears (Study B, Day 1). The class given is in vivo, young, male, adult hairless outbred mice (Skh:hr-1 strain). To be noted: 1.5 micromole per 10 microliter on untreated ears.
Text: as §1, §2, §3
The first batch of 40 animals is divided into […] of 5 each. […] The remaining two groups of 5 animals each serve as controls and their ears are dosed with A-23187 and acetone respectively.
as §4

Data set [2] relates to inflammation of mice ears caused by calcium ionophore (A-23187). The experiment in a line: Anti-inflammatory activity on inflammation of mice ears caused by calcium ionophore A-23187 (Examples 4-7). The class given is in vivo, male outbred hairless mice. As to conditions: for Reduction in Edema (%) / Reduction in Erythema (%): Table I, 1.5 micromole topically to ear 30 min after 4.0 nmole A-23187, assessed at 4 hrs; for anti-inflammatory activity (in words): at the concentration used (1.5 micromole), data of Table 1; for reduction of inflammation (in words): topical, 30 minutes after application of ionophore A-23187. From the text:
In a group of 5 male outbred hairless mice, inflammation is induced on their ears by the topical application thereto of 4.0 nmole in acetone solution (total volume 10 microliter) of the known divalent calcium ionophore (antibiotic A-23187), which is derived from streptomyces chartreusis and is a member of a known class of compounds having ionophoric activity. See, e.g. Pressman, B. C., "Biological Applications of Ionophores", Ann. Rev. Biochem., 45, 501, 1976. […] See Marks, F., Furstenberger, G., and Kownatzki, E., "Prostaglandin E-mediated Mitogenic Stimulation of Mouse Epidermis in vivo by divalent cation ionophore A-23187 and by tumor promoter 12-O-tetradecanoyl phorbol-13-acetate, Cancer Res., 41, 696, 1981.
In each animal only one ear is treated, the other untreated ear serving as a control.
In Examples 4, 5 and 6 the compounds AN-10, APCF3-8 and AMCF3-8, respectively, are topically applied to the treated ears of different groups of five male outbred hairless mice 30 minutes following the topical application thereto of the ionophore A-23187. Specifically, 1.5 micromole of the amido compound in acetone solution (total volume 10 microliters) is applied topically to treated male outbred hairless mice ears 30 min. after topical application thereto of a calcium ionophore (A-23187, 4.0 nmole total volume to 10 microliter) in acetone. As already noted, in each case, each animal serves as its own control in that only one ear is subjected to said test regime while the other ear is left untouched. Erythema and edema are assessed 4 hrs. after application of the ionophore. In Control Example 7, 3,4',5-tribromosalicylanilide (TBS) is applied in the same manner.

In data set [3] the test system is Osborne-Mendel white rats. To be noted: single dose oral route, female Osborne-Mendel white rats; cited from earlier work.
In another data set the test system is rats. As to conditions: comparable toxicity for aspirin; cited from earlier work.
A further data set concerns mice backs (skin). To be noted: topical application to mice backs; cited from earlier work.
Where [4] appears, read: Study B, Day 2, 1.5 micromole per 10 microliter, A-23187 inflamed ears.

Turning to `CCCCCCc1ccc(O)c(C(=O)Nc2ccc([N+](=O)[O-])cc2)c1` [SAN-6], the “Reduction in Edema (%)” value in data set [1] (setting [4]) turned out to be 59%. Also, in data set [1], the “anti-inflammatory activity (in words)” value is “significant anti-inflammatory activity”. Further, in the data set with untreated ears of mice, the “noticeable inflammation caused by the compound alone” value (shortened to “noticeable inflammation caused”) is on record as “none of the six compounds being tested cause any noticeable inflammation”.

With `CCCCCCCCCC(=O)c1ccc(O)c(C(=O)Nc2ccc([N+](=O)[O-])cc2)c1` [AN-10], the “Reduction in Edema (%)” value is 55% in data set [1] (Study A, 1.5 micromole per ear 1/2 hour after 4 nano mole A-23187); 81% in data set [1] (setting [4]); 59% in data set [2]. The “anti-inflammatory activity (in words)” value in data set [1] is given as “significant anti-inflammatory activity”; in data set [2] it was “effective anti-inflammatories”. For the same molecule, the “Reduction in Erythema (%)” value in data set [2] is on record as 59%. The LD50 result in data set [3] is “greater than 2000 mg./kg”. In the data set with untreated ears of mice, the “noticeable inflammation caused” value is “none of the six compounds being tested cause any noticeable inflammation”.

With `CC(=O)Oc1ccccc1C(=O)O` [aspirin, acetylsalicylic acid], in the data set on rats, the LD50 entry was “about 1.75 g/kg. body weight”.

For `COc1ccc2c(c1)c(CC(=O)O)c(C)n2C(=O)c1ccc(Cl)cc1` [indomethacin, reference compound], in data set [2], the “reduction of inflammation (in words)” value was “reduction of inflammation”.

In the case of `CCCCc1ccc(O)c(C(=O)Nc2cccc(C(F)(F)F)c2)c1` [S-4-F], in data set [1] (setting [4]), the “Reduction in Edema (%)” value came to 70%. Also, the “anti-inflammatory activity (in words)” value in data set [1] was “significant anti-inflammatory activity”. In addition, the “noticeable inflammation caused” value in the data set with untreated ears of mice is given as “none of the six compounds being tested cause any noticeable inflammation”.

Turning to `CCCCCCCCC(=O)c1ccc(O)c(C(=O)Nc2cccc(C(=O)OCC)c2)c1` [ACBXE-9], the “Reduction in Edema (%)” value in data set [1] (setting [4]) was 76%. Besides, the “anti-inflammatory activity (in words)” value in data set [1] was “significant anti-inflammatory activity”. Moreover, the “noticeable inflammation caused” value in the data set on untreated ears of mice is on record as “none of the six compounds being tested cause any noticeable inflammation”.

As for `CCCCCCCC(=O)c1ccc(O)c(C(=O)Nc2cccc(C(F)(F)F)c2)c1` [AMCF3-8], the “Reduction in Edema (%)” value in data set [1] (setting [4]) came to 81%. Further, the “anti-inflammatory activity (in words)” value in data set [1] is “significant anti-inflammatory activity”. Moreover, in data set [2] (AMCF3-8 versus APCF3-8), the “more edema reduction activity of the meta isomer than the para isomer” value is “about 30%” and the “more erythema reduction activity of the meta isomer than the para isomer” value was “about 20%”. In addition, in data set [2], the “Reduction in Edema (%)” value was determined as 80%, the “Reduction in Erythema (%)” value was found to be 76% and the “anti-inflammatory activity (in words)” value is “effective anti-inflammatories”. Moreover, the “noticeable inflammation caused” value in the data set on untreated ears of mice is on record as “none of the six compounds being tested cause any noticeable inflammation”.

For the molecule `O=C(Nc1ccc(Br)cc1)c1cc(Br)cc(Br)c1O` [TBS, 3,4',5-tribromosalicylanilide, reference compound], in data set [2], the “Reduction in Edema (%)” value worked out at 12%, the “Reduction in Erythema (%)” value was found to be 35% and the “anti-inflammatory activity (in words)” value is “essentially inactive”.

Consider `CCCCCCCC(=O)c1ccc(O)c(C(=O)Nc2ccc(C(F)(F)F)cc2)c1` [APCF3-8], for which, in data set [2], the “Reduction in Edema (%)” value is recorded as 48%, the “Reduction in Erythema (%)” value is recorded as 57% and the “anti-inflammatory activity (in words)” value is “effective anti-inflammatories”.

On to `CNc1ccc2oc(C[C@H]3O[C@@]4(CC[C@H]3C)O[C@H]([C@H](C)C(=O)c3ccc[nH]3)[C@H](C)C[C@H]4C)nc2c1C(=O)O` [A-23187, reference compound], for which the “acute inflammation on treated mice ears (in words)” value in data set [2] (topical application of A-23187, time and dose dependent) is “Acute inflammation develops on treated mice ears within 4 hours”. The “skin irritation (in words)” value with mice backs (skin) is “potent ability to cause skin irritation with white blood cell infiltration, erythema (skin reddening), edema, epidermal hypertrophy and subsequent epidermal hyperplasia”.

Consider `C=CC(=O)Oc1ccc(C(=O)CCCCCCCCC)cc1C(=O)Nc1ccc([N+](=O)[O-])cc1` [acryloyl AN-10], for which the “Reduction in Edema (%)” value in data set [1] (setting [4]) was found to be 82%. Besides, in data set [1], the “anti-inflammatory activity (in words)” value is “significant anti-inflammatory activity”. For the same molecule, the “noticeable inflammation caused” value in the data set with untreated ears of mice is “none of the six compounds being tested cause any noticeable inflammation”.

For `C[C@]12CCC(=O)C=C1CC[C@@H]1[C@@H]2[C@@H](O)C[C@@]2(C)[C@H]1CC[C@]2(O)C(=O)CO` [hydrocortisone, reference compound], the “reduction of inflammation (in words)” value in data set [2] was “reduction of inflammation”.

The values are drawn from US4560549A, “Method of relieving pain and inflammatory conditions employing substituted salicylamides” (Lever Brothers Company, priority 1983, dated 1985).
